Data on 4 compounds can be found in ChEMBL document CHEMBL3272279, “Synthesis of 5-chloro-3'-nitro-4'-substituted salicylanilides, a new series of anthelmintic and antimicrobial agents” (1977).

The subject of experiment [1] is Escherichia coli. Briefly: Antimicrobial activity against Escherichia coli assessed as growth inhibition at 0.78 ug/ml after 24 hrs by two-fold serial dilution technique. The format is functional, organism-based.
Experiment [2] has as its system Agrobacterium tumefaciens. The experiment is described as follows: Antimicrobial activity against Agrobacterium tumefaciens assessed as growth inhibition after 24 hrs by two-fold serial dilution technique. The experiment is classed as functional.
In another experiment the test system is Rodentolepis nana. Briefly: Cestodicidal activity against Hymenolepis nana infected in rat at 250 mg/kg, po administered as single dose. The format is functional, organism-based. On the set-up: dose 250 mg/kg.
Experiment [3] relates to Candida albicans. The experiment is described as follows: Antimicrobial activity against Candida albicans assessed as growth inhibition after 24 hrs by two-fold serial dilution technique. The format is functional.
Experiment [4] deals with Escherichia coli. The experiment is described as follows: Antimicrobial activity against Escherichia coli assessed as growth inhibition after 24 hrs by two-fold serial dilution technique. The format is functional, organism-based.
Another experiment has as its system Cryptococcus neoformans. The experiment is described as follows: Antimicrobial activity against Cryptococcus neoformans assessed as growth inhibition after 24 hrs by two-fold serial dilution technique. The format is functional.
Experiment [5] relates to Trichophyton mentagrophytes. Briefly: Antimicrobial activity against Trichophyton mentagrophytes assessed as growth inhibition after 24 hrs by two-fold serial dilution technique. The experiment is classed as functional.
The next experiment relates to Aspergillus niger. The experiment is described as follows: Antimicrobial activity against Aspergillus niger assessed as growth inhibition after 24 hrs by two-fold serial dilution technique. The format is functional.
The test system of another experiment is Microsporum canis. Briefly: Antimicrobial activity against Microsporum canis assessed as growth inhibition after 24 hrs by two-fold serial dilution technique. The experiment is classed as functional.
A further experiment deals with Staphylococcus aureus. The experiment is described as follows: Antimicrobial activity against penicillin-resistant Staphylococcus aureus assessed as growth inhibition after 24 hrs by two-fold serial dilution technique. The format is functional.
The test system of a further experiment is Bacillus subtilis. Briefly: Antimicrobial activity against Bacillus subtilis assessed as growth inhibition after 24 hrs by two-fold serial dilution technique. The format is functional, organism-based.
A further experiment concerns Salmonella typhi. The experiment is described as follows: Antimicrobial activity against Salmonella typhi assessed as growth inhibition after 24 hrs by two-fold serial dilution technique. The format is functional, organism-based. The note with it: Salmonella enterica subsp. enterica serovar Typhi.
The test system of experiment [6] is Candida albicans. The experiment is described as follows: Antimicrobial activity against Candida albicans assessed as growth inhibition at 0.39 ug/ml after 24 hrs by two-fold serial dilution technique. The experiment is classed as functional, organism-based.

SMILES strings stand for the structures. Converted amounts (≈) assume the structure as drawn. The source made the active and inactive calls. No cut-off for these calls is given here.

As usually defined, the MIC is the least concentration at which growth counts as inhibited.

In the case of `CN(C)[C@@H]1C(O)=C(C(N)=O)C(=O)[C@@]2(O)C(O)=C3C(=O)c4c(O)cccc4[C@@](C)(O)[C@H]3C[C@@H]12` [TETRACYCLINE], in the experiment with Escherichia coli [1], the “growth inhibition (GI)” value was “Active”. Further, in experiment [2], the MIC was 0.78 µg/mL (≈ 1.76 µM).

As for `CCCCN(CCCC)c1ccc(NC(=O)c2cc(Cl)ccc2O)cc1[N+](=O)[O-]`, the result in the experiment on Rodentolepis nana was inactive. The “growth inhibition (GI)” value in the experiment on Candida albicans [3], with Escherichia coli [4], with Bacillus subtilis and with Salmonella typhi was “inactive” throughout. The MIC in the experiment with Cryptococcus neoformans was greater than 100 µg/mL; in [5], greater than 100 µg/mL; with Aspergillus niger, 25 µg/mL (≈ 59.5 µM); in the experiment on Microsporum canis, 25 µg/mL (≈ 59.5 µM); in the experiment on Staphylococcus aureus, greater than 100 µg/mL; in experiment [2], greater than 100 µg/mL.

For the compound `C[C@@H]1[C@H](O)[C@@H](C)/C=C/C=C/C=C/C=C/C=C/C=C/C=C/[C@H](O[C@@H]2O[C@H](C)[C@@H](O)[C@H](N)[C@@H]2O)C[C@@H]2O[C@](O)(C[C@@H](O)C[C@@H](O)[C@H](O)CC[C@@H](O)C[C@@H](O)CC(=O)O[C@H]1C)C[C@H](O)[C@H]2C(=O)O` [AMPHOTERICIN B], the “growth inhibition (GI)” value with Candida albicans [6] is “Active”. In addition, the MIC in the experiment with Cryptococcus neoformans was 0.78 µg/mL (≈ 0.844 µM); in experiment [5], 1.56 µg/mL (≈ 1.69 µM); with Aspergillus niger it was 12.5 µg/mL (≈ 13.5 µM); with Microsporum canis it was 1.56 µg/mL (≈ 1.69 µM).

With `Cc1ccc(Oc2ccc(NC(=O)c3cc(Cl)ccc3O)cc2[N+](=O)[O-])cc1`, the result with Rodentolepis nana was inactive. In addition, the “growth inhibition (GI)” value in the experiment with Candida albicans [3], with Escherichia coli [4], in the experiment with Bacillus subtilis and with Salmonella typhi was “inactive” throughout. The MIC is greater than 100 µg/mL in the experiment on Cryptococcus neoformans; 1.56 µg/mL (≈ 3.91 µM) in experiment [5]; 6.25 µg/mL (≈ 15.7 µM) in the experiment with Aspergillus niger; 0.78 µg/mL (≈ 1.96 µM) in the experiment on Microsporum canis; 0.39 µg/mL (≈ 0.978 µM) in the experiment with Staphylococcus aureus; greater than 100 µg/mL in experiment [2].
